Data reported in US7208154B2, “Methods and compositions for the treatment of MHC-associated conditions” (Regents of the University of Michigan, priority 2002, dated 2007).

Target: T1, calreticulin (Homo sapiens, UniProt P27797)
T1 sequence (P27797 18-417): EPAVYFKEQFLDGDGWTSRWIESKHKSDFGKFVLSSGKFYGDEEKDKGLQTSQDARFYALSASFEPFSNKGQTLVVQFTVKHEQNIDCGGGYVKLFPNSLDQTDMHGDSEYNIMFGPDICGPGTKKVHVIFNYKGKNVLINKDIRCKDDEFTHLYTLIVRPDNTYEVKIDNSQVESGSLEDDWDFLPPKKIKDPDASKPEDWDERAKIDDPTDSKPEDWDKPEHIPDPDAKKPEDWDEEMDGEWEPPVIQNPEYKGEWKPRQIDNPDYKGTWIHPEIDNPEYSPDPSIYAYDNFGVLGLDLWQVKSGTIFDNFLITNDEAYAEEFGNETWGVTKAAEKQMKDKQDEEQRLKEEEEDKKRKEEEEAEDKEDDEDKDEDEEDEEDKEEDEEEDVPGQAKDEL
Experiment: Blocking of shared epitope peptide-triggered signaling (cAMP-inhibitory effect, genoprotection) in M1 cells
Format: cell-based
Set-up: endogenous in cells; host or cells: M1 human fibroblastoid cells
Conditions: M1 cells pre-incubated or transfected
Procedure: Finally, in order to determine whether these neuroprotective peptides transduce their signaling through calreticulin, two complementing protocols were executed: i) Inhibition of peptide-calreticulin interaction using anti-calreticulin antibodies, or ii) blocking calreticulin expression with antisense oligonucleotides (as shown in FIG. 13C and FIG. 13D).
M1 cells were cultured in 6-well plate to 60–70% confluency. M1 cells were treated by 0.2 μM antisense oligonucleotide for 24 to 48 hr, using Lipofectin as a carrier. Calreticulin expression levels were determined by Western-blot and flow cytometry, using anti-calreticulin antibodies. Polyclonal rabbit anti-human calreticulin antibodies were obtained from ABR, Golden, CO.

DKCLA [Asp Lys Cys Leu Ala]
Block of shared epitope peptide-triggered signaling / inhibitory effect on genoprotection: prevented
